The text below walks through data of BindingDB's records for doi:10.1111/cbdd.12375 (Ferdowsi University of Mashhad, 2015).

Broadly, the IC50 is the concentration at which inhibition is half-maximal. Read a high IC50 as lower potency.

This assay has as its target T1, Seed linoleate 13S-lipoxygenase-1 (Glycine max, UniProt P08170).
T1 sequence (P08170 whole entry): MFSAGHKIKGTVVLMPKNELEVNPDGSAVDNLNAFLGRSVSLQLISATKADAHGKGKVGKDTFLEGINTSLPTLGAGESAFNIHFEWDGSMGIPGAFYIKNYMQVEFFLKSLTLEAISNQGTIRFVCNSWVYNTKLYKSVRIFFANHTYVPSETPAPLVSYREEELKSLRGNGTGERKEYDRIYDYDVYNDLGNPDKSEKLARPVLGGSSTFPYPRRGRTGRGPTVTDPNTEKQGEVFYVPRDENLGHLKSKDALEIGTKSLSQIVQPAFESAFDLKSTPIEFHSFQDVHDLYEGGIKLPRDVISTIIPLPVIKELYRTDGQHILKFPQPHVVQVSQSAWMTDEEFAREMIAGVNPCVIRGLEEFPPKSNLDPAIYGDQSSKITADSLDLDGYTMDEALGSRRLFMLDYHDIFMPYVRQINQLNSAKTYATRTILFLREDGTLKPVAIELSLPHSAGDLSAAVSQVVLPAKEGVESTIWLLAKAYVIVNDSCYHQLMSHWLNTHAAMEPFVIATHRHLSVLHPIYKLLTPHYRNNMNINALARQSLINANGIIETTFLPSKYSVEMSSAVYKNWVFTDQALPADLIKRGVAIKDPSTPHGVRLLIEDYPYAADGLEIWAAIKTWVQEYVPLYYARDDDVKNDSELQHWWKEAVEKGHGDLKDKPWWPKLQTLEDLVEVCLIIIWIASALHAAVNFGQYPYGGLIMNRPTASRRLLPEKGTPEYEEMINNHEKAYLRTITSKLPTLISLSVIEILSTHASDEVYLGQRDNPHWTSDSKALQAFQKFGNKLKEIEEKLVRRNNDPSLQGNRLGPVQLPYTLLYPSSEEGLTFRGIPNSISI
Description: 15LO Inhibition Assay. The following applies: pH 7; 25 °C. Here is the method:
Linoleic acid and two assay solutions (A and B) were prepared in advance. Solution A was 50 mM 3-(dimethylamino)benzoic acid (DMAB) in a 100 mM phosphate buffer (pH 7.0). Solution B was a mixture of 10 mM 3-methyl-2-benzothiazolinone (MBTH) 3 mL, hemoglobin (5 mg/mL, 3 mL) in 50 mM phosphate buffer at pH 5.0 (25 mL). A linoleic acid solution was prepared by mixing 5 mg of linoleic acid with 50 mg Tween-20 in 3 mL water and then diluting with KOH 100 mM to a final volume of 5 mL. In the standard assay, the sample in ethanol ([…]), soybean 15-lipo-oxygenase (SLO) (4000 units/mL in 50 mM phosphate buffer pH 7.0; […]) and phosphate buffer pH 7.0 (50 mM; […]) were mixed in a test-tube, and preincubation was carried out for 5 min at room temperature. A control test was done with the same volume of ethanol. After the preincubation, linoleic acid solution […] was added to start the peroxidation reaction, and 7 min later,solution A […] and then solution B […] was added to
In turn, `CCN1CCN(c2nc(C)c(Br)c(Sc3nnc(Sc4nc(N5CCN(CC)CC5)nc(C)c4Br)n3N)n2)CC1` [3,5-bis((5-bromo-6-methyl-2-(4-ethylpiperazin-1-yl)pyrimidin-4-yl)thio)-4H-1,2,4-triazol-4-amine (4f)] came in with an IC50 of 12 µM.

In turn, `Cc1nc(N2CCOCC2)nc(Sc2nnc(Sc3nc(N4CCOCC4)nc(C)c3Br)n2N)c1Br` [3,5-bis((5-bromo-6-methyl-2-morpholinopyrimidin-4-yl)thio)-4H-1,2,4-triazol-4-amine (4a)] registered an IC50 above 500 µM.

On to `Cc1nc(N2CCC(C)CC2)nc(Sc2nnc(Sc3nc(N4CCC(C)CC4)nc(C)c3Br)n2N)c1Br` [3,5-bis((5-bromo-6-methyl-2-(4-methylpiperidin-1-yl)pyrimidin-4-yl)thio)-4H-1,2,4-triazol-4-amine (4c)], for which the IC50 is above 500 µM.

In the case of `Cc1nc(N2CCCC2)nc(Sc2nnc(Sc3nc(N4CCCC4)nc(C)c3Br)n2N)c1Br` [3,5-bis((5-bromo-6-methyl-2-(pyrrolidin-1-yl)pyrimidin-4-yl)thio)-4H-1,2,4-triazol-4-amine (4g)], the half-inhibitory concentration (IC50) was above 500 µM.

Consider `Cc1nc(N2CCN(c3ccccc3)CC2)nc(Sc2nnc(Sc3nc(N4CCN(c5ccccc5)CC4)nc(C)c3Br)n2N)c1Br` [3,5-bis((5-bromo-6-methyl-2-(4-phenylpiperazin-1-yl)pyrimidin-4-yl)thio)-4H-1,2,4-triazol-4-amine (4e)], for which the IC50 is above 500 µM.

For the compound `Cc1nc(N2CCCCC2)nc(Sc2nnc(Sc3nc(N4CCCCC4)nc(C)c3Br)n2N)c1Br` [3,5-bis((5-bromo-6-methyl-2-(piperidin-1-yl)pyrimidin-4-yl)thio)-4H-1,2,4-triazol-4-amine (4b)], the 50% inhibitory concentration (IC50) was above 500 µM.

With `Cc1nc(N2CCN(C)CC2)nc(Sc2nnc(Sc3nc(N4CCN(C)CC4)nc(C)c3Br)n2N)c1Br` [3,5-bis((5-bromo-6-methyl-2-(4-methylpiperazin-1-yl)pyrimidin-4-yl)thio)-4H-1,2,4-triazol-4-amine (4d)], the IC50 was found to be 9 µM.
